Measurements as given in patent US8343963B2, “Sulfamoyl-phenyl-ureido compounds and their use as medicament” (4SC AG, priority 2009, dated 2013).
Values after ≈ are worked out from the molar mass of the structure shown. Read-outs that look alike come from different tables or passages of the source.

Columns and labels:
[1] = test system: multiresistant Dd2 strain of Plasmodium falciparum; experiment: Antiplasmodial activity against Dd2 strain of Plasmodium falciparum ([8-3H]hypoxanthine incorporation); assay type: cell-based; conditions: 66 h, P. falciparum Dd2, 48 h + 18 h with [8-3H]hypoxanthine, 50% parasite growth inhibition, read-out: Antiplasmodia activity (IC50 class)
Summary of the method: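 Dd2 parasites at 0.3% parasitaemia and 2.5% haematocrit in RPMI 1640 with 10% human serum were exposed to 0.001–100 μM compound for 48 h. [8-3H]hypoxanthine was then added for a further 18 h and incorporation counted by scintillation. IC50 was fitted as 50% growth inhibition.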

[2] = Solubility and solubility-range determination in 50 mM phosphate buffer at different pH; assay type: physicochemical; conditions: aqueous buffer, kinetic from dmso stock, 1% DMSO, 23° C., read-out: Solubility or solubility range
Procedure: The compounds were dissolved in DMSO at a concentration of 20 mg/ml. These stock solutions were further diluted 1:1 with DMSO (50 μl solution+50 μl DMSO) in seven steps. Subsequently, these solutions were diluted 1:100 (5 μl DMSO-stock+495 μl 50 mM phosphate buffer) in all four pH buffers (respectively: pH=4; pH=6; pH=7.4; pH=9) resulting in a final DMSO concentration of 1% in the buffers. These dilutions were vigorously mixed and transferred into 96-well reading plate. The plates were incubated in a shaker (600 rpm) at 23° C. for 24 hours. After that, the contents of the wells were mixed with a pipette and optical density (OD) was recorded at wavelengths of 550 nm; 600 nm; 650 nm and 700 nm in the Tecan Sunrise plate reader. The cut-off OD sum for an undissolved concentration of a compound was defined as follows: Cut off OD sum=mean blank OD+0.050 OD. For the determination of the solubility range, the following rule was applied: OD>cut off=>compound not dissolved at this concentration OD<cut-off=>compound dissolved at this concentration For the determination of the solubility, a titration curve (OD/concentration) was prepared and the concentrations were determined based on the measured OD of the mixture supernatant after centrifugation. The solubility values are given in μg/ml (table 3).

[3] = In vitro clearance using human liver microsomes; assay type: in vitro ADME; conditions: human liver microsomes 0.5 mg/ml, 1 μM compound, 37° C., 0-30 min
Procedure: These experiments were performed at Nikem Research (Via Zambeletti 25; Baranzate, Milan, Italy). Test compounds in duplicate at the final concentration of 1 μM were dissolved in DMSO and pre-incubated for 10 min at 37° C. in phosphate buffer pH 7.4, 3 mM MgCl2, with human liver microsomes at the final concentration of 0.5 mg/ml. After the pre-incubation period, reaction was started by adding the cofactor mixture (NADP, Glc6P, G6P-DH); samples were taken at time 0, 5, 10, 15, 20 and 30 min and added to acetonitrile to quench the metabolic reaction, centrifuged and supernatant analysed and quantified by HPLC/MS. A control sample without cofactors was always added in order to check the chemical stability of test compounds. 7-ethoxycoumarin was added as reference standard. A fixed concentration of verapamil was added in every sample as internal standard for HPLC/MS. The concentration of the remaining compound at different times was determined by HPLC/MS. The rate constant, k (min^−1) derived for the exponential decay equation (peak area vs time) was used to calculate the rate of intrinsic clearance (Cli) of the compounds using the following equations: Cli (μl/min/mg compound)=k×V; where: V (μl/mg compound)=incubation volume/mg compound added. In table 3 the clearance (in vitro metabolic stability) classification was as follows: Cli<10=compound stable; Cli between 10 and 60=low metabolism; Cli between 60 and 600=medium metabolism Cli>600=high metabolism.

Row | SMILES | IC50 [1] | solubility at 24 h ([2]; pH 4, 50 mM phosphate buffer) | solubility at 24 h ([2]; pH 6, 50 mM phosphate buffer) | solubility at 24 h ([2]; pH 7.4, 50 mM phosphate buffer) | solubility at 24 h ([2]; pH 9, 50 mM phosphate buffer) | In vitro metabolism as determined from Cli [3]
1 | CCC(=O)N1CCN(C(=N)c2cccc(NC(=O)Nc3ccc(S(=O)(=O)NCc4ccc(S(N)(=O)=O)cc4)cc3)c2)CC1 [Compound 58, 4-(3-(3-(imino(4-propionylpiperazin-1-yl)methyl)phenyl)ureido)-N-(4-sulfamoylbenzyl)benzenesulfonamide] | < 20 nM | > 200 µg/mL | > 200 µg/mL | > 200 µg/mL | > 200 µg/mL | low (Cli between 10 and 60=low metabolism)
2 | N=C(c1cccc(NC(=O)Nc2ccc(S(=O)(=O)NCc3ccc(S(N)(=O)=O)cc3)cc2)c1)N1CCNCC1 [Compound 52, 4-(3-(3-(imino(piperazin-1-yl)methyl)phenyl)ureido)-N-(4-sulfamoylbenzyl)benzenesulfonamide] | 20 to 200 nM | > 200 µg/mL | > 200 µg/mL | > 200 µg/mL | > 200 µg/mL | low (Cli between 10 and 60=low metabolism)
3 | CCCCN1CCN(C(=N)c2cccc(NC(=O)Nc3ccc(S(=O)(=O)NCc4ccc(S(N)(=O)=O)cc4)cc3)c2)CC1 [Compound 34, 4-(3-(3-((4-butylpiperazin-1-yl)(imino)methyl)phenyl)ureido)-N-(4-sulfamoylbenzyl)benzenesulfonamide] | < 20 nM | 960 µg/mL (≈ 1530 µM) | 960 µg/mL (≈ 1530 µM) | 750 µg/mL (≈ 1190 µM) | 540 µg/mL (≈ 860 µM) | medium (Cli between 60 and 600=medium metabolism)
4 | CN(C)C(=N)c1cccc(NC(=O)Nc2ccc(S(=O)(=O)NCc3ccc(S(N)(=O)=O)cc3)cc2)c1 [Compound 64, N,N-dimethyl-3-(3-(4-(N-(4-sulfamoylbenzyl)sulfamoyl)phenyl)ureido)benzimidamide] | 210 to 990 nM |  |  |  |  | low (Cli between 10 and 60=low metabolism)
5 | N#CCCN1CCN(C(=N)c2cccc(NC(=O)Nc3ccc(S(=O)(=O)NCc4ccc(S(N)(=O)=O)cc4)cc3)c2)CC1 [Compound 65, 4-(3-(3-((4-(2-cyanoethyl)piperazin-1-yl)(imino)methyl)phenyl)ureido)-N-(4-sulfamoylbenzyl)benzene sulfonamide] | 210 to 990 nM |  |  |  |  | medium (Cli between 60 and 600=medium metabolism)
6 | N=C(c1cccc(NC(=O)Nc2ccc(S(=O)(=O)NCc3ccc(S(N)(=O)=O)cc3)cc2)c1)N1CCOCC1 [Compound 43, 4-(3-(3-(imino (morpholino)methyl)phenyl)ureido)-N-(4-sulfamoylbenzyl)benzenesulfonamide] | 20 to 200 nM |  |  |  |  | medium (Cli between 60 and 600=medium metabolism)
7 | COC(=O)N1CCN(C(=N)c2cccc(NC(=O)Nc3ccc(S(=O)(=O)NCc4ccc(S(N)(=O)=O)cc4)cc3)c2)CC1 [Compound 60, methyl 4-(imino(3-(3-(4-(N-(4-sulfamoylbenzyl)sulfamoyl)phenyl)ureido)phenyl)methyl)piperazine-1-carboxylate] | < 20 nM | 1480 µg/mL (≈ 2350 µM) | 1290 µg/mL (≈ 2040 µM) | 763 µg/mL (≈ 1210 µM) | 456 µg/mL (≈ 724 µM) | medium (Cli between 60 and 600=medium metabolism)
8 | CCCN1CCN(C(=N)c2cccc(NC(=O)Nc3ccc(S(=O)(=O)NCc4ccc(S(N)(=O)=O)cc4)cc3)c2)CC1 [Compound 38, 4-(3-(3-(imino(4-propylpiperazin-1-yl)methyl)phenyl)ureido)-N-(4-sulfamoylbenzyl)benzenesulfonamide] | < 20 nM | > 200 µg/mL | > 200 µg/mL | > 200 µg/mL | > 200 µg/mL | medium (Cli between 60 and 600=medium metabolism)
